From PubChem BioAssay AID248 (DTP/NCI, 2004)
Where “and” joins values, the source holds several entries; their conditions need not be identical. Equal values may be shown once. Toxic doses and inconclusive results are not listed. Cut-off read from the data, not from the text of the source: active = T/C of 150% or more; inactive = T/C below 125%.

System: L1210 leukemia ip in BDF1 mice, survival T/C
Assay: NCI In Vivo Anticancer Drug Screen. Data for tumor model L1210 Leukemia (intraperitoneal) in B6D2F1 (BDF1) mice
Conditions: endpoint: mean survival time, higher = longer survival
In short: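 Read-out is survival time, reported as the treated-group measurement over the vehicle-control measurement.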

[1] = dose: 50.0 mg/kg/injection, schedule: Q01DX001 (ip), vehicle: saline
[2] = dose: 100.0 mg/kg/injection, schedule: Q01DX001 (ip), vehicle: saline
[3] = dose: 100.0 mg/kg/injection, schedule: Q04DX003 (ip), vehicle: saline with Tween-80
[4] = dose: 200.0 mg/kg/injection, schedule: Q04DX003 (ip), vehicle: saline with Tween-80
[5] = dose: 400.0 mg/kg/injection, schedule: Q04DX003 (ip), vehicle: saline with Tween-80
[6] = dose: 100.0 mg/kg/injection, schedule: Q04DX003 (ip), vehicle: saline
[7] = dose: 200.0 mg/kg/injection, schedule: Q04DX003 (ip), vehicle: saline
[8] = dose: 200.0 mg/kg/injection, schedule: Q01DX001 (ip), vehicle: saline
[9] = dose: 400.0 mg/kg/injection, schedule: Q01DX001 (ip), vehicle: saline
[10] = dose: 100.0 mg/kg/injection, schedule: Q04DX003 (ip), vehicle: Klucel (hydroxypropylcellulose) (HPC)
[11] = dose: 200.0 mg/kg/injection, schedule: Q04DX003 (ip), vehicle: Klucel (hydroxypropylcellulose) (HPC)
[12] = dose: 400.0 mg/kg/injection, schedule: Q04DX003 (ip), vehicle: Klucel (hydroxypropylcellulose) (HPC)
[13] = dose: 100.0 mg/kg/injection, schedule: Q01DX009 (ip), vehicle: saline
[14] = dose: 100.0 mg/kg/injection, schedule: Q01DX001 (ip), vehicle: carboxymethylcellulose (CMC)
[15] = dose: 200.0 mg/kg/injection, schedule: Q01DX001 (ip), vehicle: carboxymethylcellulose (CMC)
[16] = dose: 400.0 mg/kg/injection, schedule: Q01DX001 (ip), vehicle: carboxymethylcellulose (CMC)
[17] = dose: 50.0 mg/kg/injection, schedule: Q04DX002 (ip), vehicle: saline with Tween-80
[18] = dose: 100.0 mg/kg/injection, schedule: Q04DX002 (ip), vehicle: saline with Tween-80
[19] = dose: 50.0 mg/kg/injection, schedule: Q01DX009 (ip), vehicle: saline with Tween-80
[20] = dose: 100.0 mg/kg/injection, schedule: Q01DX009 (ip), vehicle: saline with Tween-80
[21] = dose: 200.0 mg/kg/injection, schedule: Q01DX009 (ip), vehicle: saline with Tween-80
[22] = dose: 25.0 mg/kg/injection, schedule: Q01DX009 (ip), vehicle: Klucel (hydroxypropylcellulose) (HPC)
[23] = dose: 50.0 mg/kg/injection, schedule: Q01DX009 (ip), vehicle: Klucel (hydroxypropylcellulose) (HPC)
[24] = dose: 100.0 mg/kg/injection, schedule: Q01DX009 (ip), vehicle: Klucel (hydroxypropylcellulose) (HPC)
[25] = dose: 400.0 mg/kg/injection, schedule: Q01DX009 (ip), vehicle: saline with Tween-80

Measured: T/C

CC(=O)Nc1nc(Cl)c([N+](=O)[O-])c(Cl)n1
inactive: dose: 3.12 mg/kg/injection, schedule: Q04DX002 (ip), vehicle: Klucel (hydroxypropylcellulose) (HPC) 103 % of control | dose: 6.25 mg/kg/injection, schedule: Q04DX002 (ip), vehicle: Klucel (hydroxypropylcellulose) (HPC) 100 % of control | dose: 12.5 mg/kg/injection, schedule: Q01DX001 (ip), vehicle: Klucel (hydroxypropylcellulose) (HPC) 92 % of control | dose: 12.5 mg/kg/injection, schedule: Q04DX002 (ip), vehicle: Klucel (hydroxypropylcellulose) (HPC) 103 % of control

S=P1(c2ccccc2)Nc2cc(Cl)ccc2S1 (stereo not given)
inactive: [1] 105 % of control | [2] 106 % of control

Oc1ccc(C2CC3CCC2C3)cc1 (stereo not given)
inactive: dose: 100.0 mg/kg/injection, schedule: Q04DX003 (ip), vehicle: saline + alcohol 98 % of control | dose: 200.0 mg/kg/injection, schedule: Q04DX003 (ip), vehicle: saline + alcohol 90 % of control | dose: 400.0 mg/kg/injection, schedule: Q04DX003 (ip), vehicle: saline + alcohol 96 % of control

Cc1ccc(C(=O)CCC(=O)O)cc1
inactive: [3] 102 % of control | [4] 98 % of control | [5] 94 % of control

Cc1ncc(CO)c(CO)c1O
inactive: [6] 101 % of control | [7] 100 % of control | dose: 400.0 mg/kg/injection, schedule: Q04DX003 (ip), vehicle: saline 96 % of control

COc1ccc(C2(OC)Oc3ccccc3-c3nc4ccccc4nc32)cc1 (stereo not given)
inactive: [1] 95 % of control | [2] 95 % of control | [8] 87 % of control | [9] 95 % of control

N#CCC(c1ccccc1)C(C#N)c1ccccc1 (stereo not given)
inactive: dose: 75.0 mg/kg/injection, schedule: Q01DX001 (ip), vehicle: carboxymethylcellulose (CMC) 97 % of control | dose: 150.0 mg/kg/injection, schedule: Q01DX001 (ip), vehicle: carboxymethylcellulose (CMC) 93 % of control

CCOC(=O)c1cnc(C)nc1Nc1ccccc1
inactive: [10] 97 % of control | [11] 103 % of control | [12] 108 % of control

CCc1cc(CC)c(S(=O)(=O)O)c(CC)c1CC
inactive: [13] 90 % of control

COC(=O)C1CC(OS(=O)(=O)c2ccc(C)cc2)CN1C(=O)OCc1ccccc1 (stereo not given)
inactive: [3] 102 % of control | [4] 94 % of control | [5] 92 % of control

C=CC1CN2CCC1CC2C(OC(C)=O)c1ccnc2ccc(OC)cc12 (stereo not given)
inactive: dose: 50.0 mg/kg/injection, schedule: Q01DX001 (ip), vehicle: carboxymethylcellulose (CMC) 97 % of control | [14] 101 % of control | [15] 97 % of control | [16] 92 % of control

O=C(O)C1CC(n2cnc3c(=O)[nH]cnc32)CN1 (stereo not given)
inactive: [17] 102 % of control | [18] 98 % of control

CC1=CC(C)(C)Nc2cc(N)ccc21
inactive: dose: 75.0 mg/kg/injection, schedule: Q01DX001 (ip), vehicle: other 110 % of control | dose: 150.0 mg/kg/injection, schedule: Q01DX001 (ip), vehicle: other 105 % of control | dose: 300.0 mg/kg/injection, schedule: Q01DX001 (ip), vehicle: other 91 % of control

CCOC(=O)C(C(=S)Nc1ccccc1)=S(C)C
inactive: [18] 87 % of control | dose: 200.0 mg/kg/injection, schedule: Q04DX002 (ip), vehicle: saline with Tween-80 87 % of control | dose: 400.0 mg/kg/injection, schedule: Q04DX002 (ip), vehicle: saline with Tween-80 91 % of control

C1=CN2CC(c3ccccc3)=NNC2c2ccccc21 (stereo not given)
inactive: dose: 100.0 mg/kg/injection, schedule: Q04DX003 (ip), vehicle: alcohol 107 % of control | [6] 97 % of control | [7] 97 % of control

COc1ccc(OC(=O)Nc2ccc(Cl)cc2Cl)cc1
inactive: [19] 102 % of control | [20] 91 % of control | [21] 98 % of control

Cc1ccc2c(Br)cc(Br)c(O)c2n1
inactive: [22] 94 % of control | [23] 96 % of control | [24] 97 % of control and 89 % of control | [10] 97 % of control | [11] 112 % of control | [12] 98 % of control

N#CCC(C(=O)c1cccnc1)c1ccccc1 (stereo not given)
inactive: dose: 100.0 mg/kg/injection, schedule: Q04DX002 (ip), vehicle: gum acacia 104 % of control | dose: 200.0 mg/kg/injection, schedule: Q04DX002 (ip), vehicle: gum acacia 87 % of control

Cc1nc(N)[nH]c(=O)c1CCCNCc1ccco1
inactive: [2] 100 % of control | [8] 103 % of control | [9] 99 % of control

Cc1ccc(NC(=O)Oc2ccc(-c3ccccc3)cc2)cc1NC(=O)Oc1ccc(-c2ccccc2)cc1
inactive: [20] 91 % of control | [25] 96 % of control

On1ccc(N2CCOCC2)cc1=Nc1ccccc1
inactive: [2] 96 % of control

O=C(O)CC(SC(CC(=O)O)C(F)(F)C(F)(F)C(F)(F)F)C(F)(F)C(F)(F)C(F)(F)F (stereo not given)
inactive: [20] 94 % of control | [10] 108 % of control | [21] 97 % of control | [11] 97 % of control | [25] 94 % of control | [12] 88 % of control

CS(=O)(=O)c1ccccc1C(=O)O
inactive: dose: 50.0 mg/kg/injection, schedule: Q01DX009 (ip), vehicle: saline 93 % of control | dose: 50.0 mg/kg/injection, schedule: Q04DX003 (ip), vehicle: acetone 105 % of control | dose: 100.0 mg/kg/injection, schedule: Q01DX001 (ip), vehicle: acetone 97 % of control | [13] 98 % of control | dose: 100.0 mg/kg/injection, schedule: Q04DX003 (ip), vehicle: acetone 105 % of control | dose: 200.0 mg/kg/injection, schedule: Q01DX001 (ip), vehicle: acetone 101 % of control | dose: 200.0 mg/kg/injection, schedule: Q01DX009 (ip), vehicle: saline 98 % of control | dose: 200.0 mg/kg/injection, schedule: Q04DX003 (ip), vehicle: acetone 103 % of control

NC(=S)NN=C1CCCCCCCCC1
inactive: [2] 102 % of control

CCCCCc1cnc(NCCCC(N)C(=O)O)nc1 (stereo not given)
inactive: dose: 25.0 mg/kg/injection, schedule: Q04DX002 (ip), vehicle: saline with Tween-80 95 % of control | [17] 95 % of control | [18] 95 % of control

O=C(O)C1=CCCc2ccc(Br)cc21
inactive: [19] 93 % of control | [20] 95 % of control | [21] 98 % of control

CC1=CC(=O)CC(C)(C)C1(O)/C=C/C(C)=C/C(=O)O (stereo not given)
inactive: dose: 12.5 mg/kg/injection, schedule: Q04DX003 (ip), vehicle: Klucel (hydroxypropylcellulose) (HPC) 93 % of control | [22] 87 % of control | dose: 25.0 mg/kg/injection, schedule: Q04DX003 (ip), vehicle: Klucel (hydroxypropylcellulose) (HPC) 96 % of control | [23] 88 % of control | dose: 50.0 mg/kg/injection, schedule: Q04DX003 (ip), vehicle: Klucel (hydroxypropylcellulose) (HPC) 88 % of control | [24] 93 % of control | [10] 96 % of control | dose: 200.0 mg/kg/injection, schedule: Q01DX009 (ip), vehicle: Klucel (hydroxypropylcellulose) (HPC) 92 % of control | [11] 98 % of control | dose: 400.0 mg/kg/injection, schedule: Q01DX009 (ip), vehicle: Klucel (hydroxypropylcellulose) (HPC) 95 % of control | [12] 102 % of control

C[n+]1ccsc1
inactive: [3] 104 % of control | [4] 103 % of control | [5] 97 % of control

O=C(c1ccccc1)C(C(c1ccccc1)N1CCOCC1)N1CCOCC1 (stereo not given)
inactive: [1] 113 % of control | [2] 102 % of control | [8] 108 % of control | [9] 102 % of control

CCCCCCCCCCCCCCCCS(=O)(=O)N/N=C/c1ccc([N+](=O)[O-])cc1
inactive: [14] 94 % of control | [15] 87 % of control | [16] 105 % of control

CCOC(=O)NC(NC(=O)OCC)C(NC(=O)OCC)NC(=O)OCC
inactive: [14] 87 % of control | [15] 91 % of control | [16] 91 % of control
